In one test the target is T1, human PDHK2 (hPDHK2) (Homo sapiens, UniProt Q15119).
T1 construct: made in house; host or cells: Escherichia coli BL21(DE3), pET-17b vector
Briefly: Inhibitory action of PDHK2 activity (residual PDH activity, NADH absorbance at 340 nm). The class given is biochemical. The following applies: PDH/hPDHK2 complex, PDHK reaction 45 min at room temperature. How it is done:
In the case of human PDHK2 (hPDHK2, NCBI Reference Database Accession number NM_002611.4), modified hPDHK2 cDNA wherein FLAG-Tag sequence was added to the N terminus of hPDHK2 cDNA clone (pReceiver-M01/PDK2-GeneCopoeia) as the base was prepared by polymerase chain reaction (PCR) and ligated to the NdeI/EcoRI site of pET-17b vector (Merck KGaA, Catalog Number 69663-3). The recombinant construct was transformed into Escherichia coli DH5α. The recombinant clones were identified, and plasmid DNA was isolated and subjected to the DNA sequence analysis. One clone which had the expected nucleic acid sequence was selected for expression work.
For expression of hPDHK2 activity, Escherichia coli strain BL21(DE3) cells (Merck KGaA, Catalog Number 69450-4) were transformed with the pET17b vector containing modified hPDHK2 cDNA. The Escherichia coli were grown to an optical density 0.6 ([…]) at 30° C. Protein expression was induced by the addition of 500 μmol/L isopropyl-β-thiogalactopyranoside. The Escherichia coli were cultured at 20° C. for 17-18 hr and harvested by centrifugation. The harvested Escherichia coli was resuspended in a suspension buffer (20 mmol/L HEPES-NaOH, 500 mmol/L sodium chloride, 1% ethylene glycol, 0.1% Pluronic (registered trademark) F-68 (pH 8.0), cOmplete, EDTA-free (Roche) (pH 8.0)), and disrupted by a microfluidizer M-110H (MIZUHO INDUSTRIAL CO., LTD.). The precipitate was removed by centrifugation and the supernatant was added to DDDDK-tagged Protein PURIFICATION GEL (MEDICAL & BIOLOGICAL LABORATORIES CO., LTD., Code No. 3329). DDDDK-tagged Protein PURIFICATION GEL was washed with a washing buffer (20 mmol/L HEPES-NaOH, 500 mmol/L sodium chloride, 1% ethylene glycol, 0.1% Pluronic F-68 (pH 8.0)) and the bound protein was eluted with elution buffer 1 (20 mmol/L HEPES-NaOH, 100 μg/mL peptide (amino acid sequence DYKDDDDK) (SEQ ID NO: 1), 500 mmol/L sodium chloride, 1% ethylene glycol, 0.1% Pluronic F-68 (pH 8.0)). The eluted fractions containing FLAG-Tagged protein were pooled, concentrated by an ultrafiltration method, added to a gel filtration column (HiLoad 26/60 Superdex 200 (GE Healthcare Life Sciences, Code No. 17-1070-01)), and eluted with elution buffer 2 (20 mmol/L HEPES-NaOH, 150 mmol/L sodium chloride, 0.5 mmol/L ethylenediaminetetraacetic acid (EDTA), 1% ethylene glycol, 0.1% Pluronic F-68 (pH 8.0)). The eluted fractions were pooled and preserved at −80° C.
PDH (porcine heart PDH complex, Sigma P7032) and 0.5 μg/mL hPDHK2 were mixed in an assay buffer (50 mmol/L 3-morpholinopropanesulfonic acid (pH 7.0), 20 mmol/L dipotassium hydrogen phosphate, 60 mmol/L potassium chloride, 2 mmol/L magnesium chloride, 0.4 mmol/L EDTA, 0.2% poloxamer, 2 mmol/L dithiothreitol) so that the final concentration of PDH was 0.025 U/mL, and the mixture was incubated at 4° C. overnight to obtain a PDH/hPDHK2 complex solution.
PDH was mixed with the assay buffer so that the final concentration was 0.025 U/mL, and the mixture was incubated at 4° C. overnight to prepare a PDH solution.
The test compounds were diluted with DMSO. To measure an inhibitory action of the test compound on the PDHK activity in the PDH/hPDHK2 complex solution, PDH/hPDHK2 complex solution (20 μL), test compound (1.5 μL) and 1.06 μmol/L ATP (diluted with assay buffer) (8.5 μL) were added to a 384 well microplate (Greiner Bio-One 781801) and PDHK reaction was performed at room temperature for 45 min (test compound well). DMSO (1.5 μL) was added to control wells instead of test compound. In addition, DMSO (1.5 μL) was added to blank wells instead of the test compound, and PDH solution was added instead of the PDH/hPDHK2 complex solution. To measure an inhibitory action of the test compound on the PDHK activity inherent in the PDH solution, a test compound was added and the PDH solution instead of the PDH/hPDHK2 complex solution was added to a blank+test compound well. […]
The compound `C[C@H]1Cn2nc(C(C)(O)C(F)(F)F)cc2-c2cnc([C@@](C)(O)C(F)(F)F)n21` (mixture of isomers) [Example 26] returned an IC50 of 31 nM.

For `C[C@H]1Cc2ccccc2-c2cnc([C@@](C)(O)C(F)(F)F)n21` (racemic) [Example 1, 1,1,1-trifluoro-2-(5-methyl-5,6-dihydroimidazo[5,1-a]isoquinolin-3-yl)propan-2-ol], the IC50 is 16 nM.

The compound `C[C@H]1Cc2c(C(F)(F)F)noc2-c2cnc([C@@](C)(O)C(F)(F)F)n21` (racemic) [Example 3] had an IC50 of 17 nM. On the same count and under the same terms, in the case of `C[C@H]1Cc2cc(C#N)ccc2-c2cnc([C@@](C)(O)C(F)(F)F)n21` (racemic) [Example 5] it was 21 nM; in that of `C[C@H]1Cc2cnc(C(F)(F)F)nc2-c2cnc([C@@](C)(O)C(F)(F)F)n21` (racemic) [Example 6, 1,1,1-trifluoro-2-(6-methyl-2-(trifluoromethyl)-5,6-dihydroimidazo[1′,5′:1,2]pyrido[3,4-d]pyrimidin-8-yl)propan-2-ol], 220 nM; in that of `C[C@H]1Cc2c(C(F)(F)F)nn(C)c2-c2cnc([C@@](C)(O)C(F)(F)F)n21` (racemic) [Example 24, 2-(1,5-dimethyl-3-(trifluoromethyl)-4,5-dihydro-1H-imidazo[1,5-a]pyrazolo[3,4-c]pyridin-7-yl)-1,1,1-trifluoropropan-2-ol], above 100 nM. Same read-out and setting: in the case of `C[C@H]1Cc2c(C(C)(C)O)noc2-c2cnc([C@@](C)(O)C(F)(F)F)n21` (racemic) [Example 25] it was 18 nM. `C[C@H]1Cc2c(C3CC3)noc2-c2cnc([C@@](C)(O)C(F)(F)F)n21` (racemic) [Example 34, 2-(3-cyclopropyl-5-methyl-4,5-dihydroimidazo[1,5-a]isoxazolo[5,4-c]pyridin-7-yl)-1,1,1-trifluoropropan-2-ol]: 21 nM corresponded to half-maximal inhibition (IC50). The same measure, in the same setting: as for `C[C@H]1Cc2c(noc2C2CC2)-c2cnc([C@@](C)(O)C(F)(F)F)n21` (racemic) [Example 35, 2-(3-cyclopropyl-5-methyl-4,5-dihydroimidazo[1,5-a]isoxazolo[3,4-c]pyridin-7-yl)-1,1,1-trifluoropropan-2-ol], the figure is 19 nM; as for `C[C@H]1Cc2c(C(F)(F)F)n[nH]c2-c2cnc([C@@](C)(O)C(F)(F)F)n21` (racemic) [Example 50, 1,1,1-trifluoro-2-(5-methyl-3-(trifluoromethyl)-4,5-dihydro-1H-imidazo[1,5-a]pyrazolo[3,4-c]pyridin-7-yl)propan-2-ol], 27 nM; as for `C[C@H]1Cn2c(nnc2C(F)(F)F)-c2cnc([C@@](C)(O)C(F)(F)F)n21` [Example 2, (R)-1,1,1-trifluoro-2-((S)-6-methyl-3-(trifluoromethyl)-5,6-dihydroimidazo[1,5-a] [1,2,4]triazolo[3,4-c]pyrazin-8-yl)propan-2-ol], 26 nM. On the same count and under the same terms, as for `C[C@H]1Cn2nc(C(F)(F)F)cc2-c2cnc([C@@](C)(O)C(F)(F)F)n21` [Example 4], the figure is 14 nM. `C[C@H]1Cn2c(cnc2C(F)(F)F)-c2cnc([C@@](C)(O)C(F)(F)F)n21` [Example 7] had an IC50 of 7.5 nM. The same measure, in the same setting: in the case of `C[C@H]1Cn2nccc2-c2cnc([C@@](C)(O)C(F)(F)F)n21` [Example 8] it was 7.7 nM. `Cc1cc2n(n1)C[C@H](C)n1c-2cnc1[C@@](C)(O)C(F)(F)F` [Example 9] came in with an IC50 of 13 nM. For the compound `C[C@H]1Cn2nc(C3CC3)cc2-c2cnc([C@@](C)(O)C(F)(F)F)n21` [Example 10], the IC50 turned out to be 13 nM.

In turn, `C[C@H]1Cn2ncc(Cl)c2-c2cnc([C@@](C)(O)C(F)(F)F)n21` [Example 11] came in with an IC50 of 34 nM. The compound `CC[C@H]1Cn2nc(C(F)(F)F)cc2-c2cnc([C@@](C)(O)C(F)(F)F)n21` [Example 12] yielded an IC50 above 100 nM. In the case of `C[C@H]1Cn2nc(C(F)(F)F)cc2-c2nnc([C@@](C)(O)C(F)(F)F)n21` [Example 13, (R)-1,1,1-trifluoro-2-((S)-5-methyl-9-(trifluoromethyl)-5,6-dihydropyrazolo[1,5-a] [1,2,4]triazolo[3,4-c]pyrazin-3-yl)propan-2-ol], the IC50 was 13 nM. With `C[C@H]1Cn2c(nnc2C2CC2)-c2cnc([C@@](C)(O)C(F)(F)F)n21` [Example 14], it took 6.3 nM to reach half-maximal inhibition (IC50). On the same count and under the same terms, as for `C[C@H]1Cn2nc(C(C)(C)C)cc2-c2cnc([C@@](C)(O)C(F)(F)F)n21` [Example 15], the figure is 14 nM; as for `Cc1nnc2n1C[C@H](C)n1c-2cnc1[C@@](C)(O)C(F)(F)F` [Example 16], 12 nM; as for `C[C@H]1Cn2c(nnc2C2(C)CC2)-c2cnc([C@@](C)(O)C(F)(F)F)n21` [Example 17], 7.3 nM. The compound `C[C@H]1Cn2c(C(F)(F)F)cnc2-c2cnc([C@@](C)(O)C(F)(F)F)n21` [Example 18] gave an IC50 of 6.5 nM. Still for that read-out and setting: as for `C[C@H]1Cn2cc(C(F)(F)F)nc2-c2cnc([C@@](C)(O)C(F)(F)F)n21` [Example 19], the figure is 11 nM; as for `C[C@H]1Cn2nc(C(C)(C)O)cc2-c2cnc([C@@](C)(O)C(F)(F)F)n21` [Example 20], 22 nM; as for `C[C@H]1Cn2c(-c3ccc(F)cc3)nnc2-c2cnc([C@@](C)(O)C(F)(F)F)n21` [Example 21], 6.3 nM.

In turn, `C[C@H]1Cn2nc(C(=O)N(C)C)cc2-c2cnc([C@@](C)(O)C(F)(F)F)n21` [Example 22] returned an IC50 of 12 nM. Same read-out and setting: in the case of `C[C@H]1Cn2nc(OC(F)F)cc2-c2cnc([C@@](C)(O)C(F)(F)F)n21` [Example 23, (R)-2-((S)-9-(difluoromethoxy)-5-methyl-5,6-dihydroimidazo[1,5-a]pyrazolo[5,1-c]pyrazin-3-yl)-1,1,1-trifluoropropan-2-ol] it was 13 nM; in that of `C[C@H]1Cn2nc(OCc3ccccc3)cc2-c2cnc([C@@](C)(O)C(F)(F)F)n21` [Example 27], 11 nM; in that of `C[C@H]1Cn2nc(O)cc2-c2cnc([C@@](C)(O)C(F)(F)F)n21` [Example 28], 22 nM. On to `C[C@H]1Cn2nc(C(F)F)cc2-c2cnc([C@@](C)(O)C(F)(F)F)n21` [Example 29], for which the midpoint of inhibition, the IC50, lay at 38 nM. In turn, `C[C@H]1Cn2nc(OCCC(C)(C)O)cc2-c2cnc([C@@](C)(O)C(F)(F)F)n21` [Example 30] returned an IC50 of 12 nM. This IC50 lies about 3.2-fold lower than the previous one. Same read-out and setting: as for `Cc1cnn2c1-c1cnc([C@@](C)(O)C(F)(F)F)n1[C@@H](C)C2` [Example 31], the figure is 81 nM; as for `COc1ccc(COCc2cc3n(n2)C[C@H](C)n2c-3cnc2[C@@](C)(O)C(F)(F)F)cc1` [Example 33], 29 nM. Consider `C[C@H]1Cn2nc(CO)cc2-c2cnc([C@@](C)(O)C(F)(F)F)n21` [Example 36], for which 19 nM corresponded to half-maximal inhibition (IC50). Still for that read-out and setting: as for `C[C@H]1Cn2nc(C=O)cc2-c2cnc([C@@](C)(O)C(F)(F)F)n21` [Example 37], the figure is 21 nM. Turning to `C[C@H]1Cn2nc(C(=O)N3CC(F)(F)C3)cc2-c2cnc([C@@](C)(O)C(F)(F)F)n21` [Example 38], inhibition was half-maximal at 14 nM (IC50). This IC50 is about 1.5-fold lower than that of the compound before.

The same test, now with this note: at 0.1 μM, given when IC50 value could not be calculated; read-out: hPDHK2 inhibitory rate.
As for `C[C@H]1Cc2c(C(F)(F)F)nn(C)c2-c2cnc([C@@](C)(O)C(F)(F)F)n21` (racemic) [Example 24, 2-(1,5-dimethyl-3-(trifluoromethyl)-4,5-dihydro-1H-imidazo[1,5-a]pyrazolo[3,4-c]pyridin-7-yl)-1,1,1-trifluoropropan-2-ol], the inhibition at 0.1 µM was 31%. On the same count and under the same terms, in the case of `CC[C@H]1Cn2nc(C(F)(F)F)cc2-c2cnc([C@@](C)(O)C(F)(F)F)n21` [Example 12] it was 35%.

What is called IC50 is the concentration needed to halve the response being measured.
